Source: patent US8362031B2, “Lonidamine analogues and treatment of polycystic kidney disease” (University of Kansas, priority 2004, dated 2013)
Values joined by “and” are separate entries in the source; they are usually repeats but may differ in a detail not shown here. Equal entries are not always repeated. “Also recorded” adds a separate entry of the source. Where two headings read alike, the source gives them in different places.

Experiments:
rats = experiment: Toxicology: organs sectioned and examined after dosing; format: in vivo; details: 25 mg/kg, two animals examined, findings per animal
[1] = test system: M-1 Clone 20; human primary cyst epithelial cells (ADPKD cells); experiment: MTT cell proliferation assay with cAMP (FIGS. 9A-9B); format: cell-based; details: 48 hours
Description: Various compounds were tested for their effects on cell proliferation. In the study, the cell types were M-1 Clone 20, which is an immortalized cell line that mimics PKD, and human primary cyst epithelial cells, or ADPKD cells. The compounds were tested at 1 μM to 100 μM concentrations.
M-1 clone 20 (“M1 Clone 20”) cells are a model of PKD-like cells, which were created by stably transfecting parental “normal” M-1 immortalized renal cortical collecting duct cells with the C-terminal cytosolic domain (or C-tail) of mouse polycystin-1 (the protein product of the Pkd1 gene. The overexpressed C-tail acts in a dominant-negative fashion, conferring the PKD phenotype to these cells. Their characterization is described in: Sutters, M., Yamaguchi, T., Maser, R. L., Magenheimer, B. S., St. John, P. L., Abrahamson, D. R., Grantham, J. J. and Calvet, J. P. (2001) Polycystin-1 transforms the cAMP growth-responsive phenotype of M-1 cells. Kidney Int. 60, 484-494.
FIGS. 9A-9B include graphs that show cells grown in the vehicle (i.e. DMSO at two different volumes of 1 uL and 5 uL respectively), cAMP only, and then under the treatment drugs, all of which also had cAMP in them. The comparison drug used was 10 uM of gamendazole. […] Absorbance is a measure of cell number.
The comparison drug used was 10 uM Gamendazole. The MTT cell proliferation assay was carried out to assess cell number—cell proliferation is essentially cell number. […] Thus, absorbance is a measure of cell number, or cell proliferation. The reference bar is the third bar from the left (cAMP)—the degree of inhibition should be compared to that bar.

Male Long Evans rats [2] = experiment: In vivo antispermatogenic testing in Long Evans rats; details: for Mortality (25 mg/kg) / Response 25 mg/kg: 25 mg/kg single i.p. injection; for Response 200 mg/kg / Mortality (200 mg/kg): 200 mg/kg single i.p. injection; for Response 200 mg/kg / Response 25 mg/kg: animals responding out of animals surviving, five days following injection
[3] = test system: Salmonella Typhimurium TA 100; experiment: Ames test for mutagenicity (plate assay, colony count); details: 48 hours at 37° C.; for Ames test (+)S9 0.1 mg/pl. / Ames test (+)S9 1 mg/pl. / Ames test (+)S9 10 mg/pl.: (+)S9 mix; for Ames test (−)S9 0.1 mg/pl. / Ames test (−)S9 1 mg/pl. / Ames test (−)S9 10 mg/pl.: (−)S9 mix
fruitfly = experiment: Reproduction of fruitfly; format: in vivo, Drosophila (fruitfly); details: provided to a fruitfly
Text: Several known Hsp90 inhibitors are listed above. With regard to HSP90, RC-MC-110 likely a novel inhibitor of the N-terminal ATP binding site or a novel site on Hsp90. It should be noted that mutants of Hsp90 in Drosophila (fruitfly) produce sterile males and females. […] Genetics. 1999 March; 151(3):1065-79.

Male Long Evans rats [4] = details: rat, in vivo, 5 days

| SMILES | Toxicology: liver, lung, pancreas, spleen, heart and kidney (histology) (rats) | Inhibition of cell proliferation (MTT absorbance) ([1]; 10 uM) | Inhibition of cell proliferation (MTT absorbance) ([1]; 25 uM) | Mortality (25 mg/kg) (Male Long Evans rats [2]) | Response 200 mg/kg (Male Long Evans rats [2]) | Ames test (+)S9 0.1 mg/pl. [3] | Ames test (+)S9 1 mg/pl. [3] | Ames test (+)S9 10 mg/pl. [3] | Ames test (−)S9 0.1 mg/pl. [3] | Ames test (−)S9 1 mg/pl. [3] | Ames test (−)S9 10 mg/pl. [3] | Reproduction of fruitfly (fruitfly) | Mortality (25 mg/kg) (Male Long Evans rats [4]) | Mortality (200 mg/kg) (Male Long Evans rats [4]) | Response 25 mg/kg (Male Long Evans rats [2]) | Mortality (200 mg/kg) (Male Long Evans rats [2]) |
| --- | --- | --- | --- | --- | --- | --- | --- | --- | --- | --- | --- | --- | --- | --- | --- | --- |
| O=C(O)/C=C/c1nn(Cc2ccc(Cl)cc2Cl)c2cc(Cl)ccc12 [JWS-1-190, 3-[1-(2,4-dichlorobenzyl)-6-chloro-1H-indazol-3-yl]-acrylic acid] | The lung did have multiple, scattered hemorrhagic patches in the alveolar clusters; also recorded: liver, lung, pancreas, spleen, heart and kidney all appeared within normal limits | very effective | quite effective in inhibiting cell proliferation | 0/5 | 0/0 and 2/5 | Pass | Pass | Pass | Pass | Pass | Pass | – | – | – | – | – |
| NNC(=O)c1nn(Cc2ccc(F)cc2F)c2cc(Cl)ccc12 [JWS-1-282, 1-(2,4-difluorobenzyl)-6-chloro-1H-indazole-3-carboxylic acid hydrazide] | – | – | quite effective in inhibiting cell proliferation | – | – | Pass | Pass | Fail | Pass | Pass | Pass | – | – | – | – | – |
| NNC(=O)c1nn(Cc2ccc(F)cc2Cl)c2cc(Cl)ccc12 [JWS-2-22, 1-(2-chloro, 4-fluorobenzyl)-6-chloro-1H-indazole-3-carboxylic acid hydrazide] | – | – | quite effective in inhibiting cell proliferation | – | – | Pass | Pass | Pass | Pass | Pass | Pass | – | – | – | – | – |
| O=C(O)c1nn(Cc2ccc(Cl)cc2Cl)c2ccccc12 [Lonidamine, 1-(2,4,-dichlorobenzyl)-1H-indazole-3-carboxylic acid] | liver, lung, pancreas, spleen, heart and kidney all appeared normal | – | – | – | 5/5 | – | – | – | – | – | – | inhibited reproduction | 0/5 | 0/5 | 2/5 | – |
| Cc1ccc2c(C(=O)O)nn(Cc3ccc(Cl)cc3Cl)c2c1 [TH-2-178, 1-(2,4-dichlorobenzyl)-6-methyl-1H-indazole-3-carboxylic acid] | – | – | more effective in inhibition of cell proliferation at 25 uM compared to 10 uM | 0/5 | 4/5 | Pass | Pass | Pass | Pass | Pass | Pass | – | – | – | 0/5 | 0/5 |
| Cc1ccc2c(C(=O)NN)nn(Cc3ccc(Cl)cc3Cl)c2c1 [TH-2-179, 1-(2,4-dichlorobenzyl)-6-methyl-1H-indazole-3-carboxylic acid hydrazide] | – | more effective at 10 uM | more effective in inhibition of cell proliferation at 25 uM compared to 10 uM | 0/5 | 5/5 | Pass | Pass | Pass | Pass | Pass | Pass | – | – | – | 2/5 | 0/5 |
| Cc1ccc2c(/C=C/C(=O)O)nn(Cc3ccc(Cl)cc3Cl)c2c1 [TH-2-192, 3-[1-(2,4-dichlorobenzyl)-6-methyl-1H-indazol-3-yl]acrylic acid] | – | – | more effective in inhibition of cell proliferation at 25 uM compared to 10 uM | 0/5 | 0/4 | Pass | Pass | Pass | Pass | Pass | Pass | – | – | – | 0/5 | 4/5 |
